One data set relates to Epidermophyton floccosum. Kind of data set: MIC/MFC microtiter broth dilution. In kind it is cell-based. Conditions: n = 6 isolates; NB-002 as μg CPC/ml.
For data set [1], the system named is Trichophyton mentagrophytes. The experiment in a line: MIC/MFC microtiter broth dilution. Particulars: for MIC90 / MIC50: Trichophyton mentagrophytes; for MIC50: read-out: MIC50; for MFC50 / MFC90 / MIC range: n = 14 isolates, NB-002 as μg CPC/ml. In kind it is cell-based.
Data set [2] concerns Candida albicans isolates. The experiment in a line: MIC/MFC microtiter broth dilution. In kind it is cell-based. Conditions: NB-002 as μg CPC/ml; for MIC90: Candida albicans, read-out: MIC90.
For another data set, the system named is M. audouinii. Kind of data set: MIC against species that cause tinea capitis. Particulars: M. audouinii n = 10. In kind it is cell-based.
The next data set concerns T. violaceum. Kind of data set: MIC against species that cause tinea capitis. The data set is classed as cell-based. Conditions: T. violaceum n = 10.
Another data set has as its system Trichophyton tonsurans. Kind of data set: MIC/MFC microtiter broth dilution. In kind it is cell-based.
A further data set deals with Microsporum canis. Kind of data set: MIC/MFC microtiter broth dilution. The data set is classed as cell-based. Particulars: M. canis n = 10 (tinea capitis species).
For data set [3] the following is noted: cited from earlier work.
Where [4] appears, read: Azole-Resistant isolates (n = 24).
[5] abbreviates: Azole-Susceptible isolates (n = 10).
Setting [6] is: T. tonsurans n = 10 (tinea capitis species).

In brackets after ≈: the same amount, converted by molar mass. Like-named read-outs stand apart in the source and are kept apart here. Some results are limits rather than exact numbers.

As for `Clc1ccc(COC(Cn2ccnc2)c2ccc(Cl)cc2Cl)cc1` (centres unmarked) [Econazole], in the data set with Epidermophyton floccosum, the “MFC Range” value lay within 0.0625 to 4 µg/mL and the “MIC range” value lay within 0.0625 to 0.125 µg/mL. Besides, in data set [1], the MIC90 was 0.25 µg/mL (≈ 0.655 µM), the MIC50 was determined as 0.25 µg/mL (≈ 0.655 µM), the MFC50 was determined as 8 µg/mL (≈ 21 µM) and the MFC90 was over 16 µg/mL. For the same compound, the “MIC range” value in data set [1] was 0.125 to 0.25 µg/mL.
Regarding `OC(Cn1cncn1)(Cn1cncn1)c1ccc(F)cc1F` [Fluconazole], in data set [2] (setting [4]), the MFC90 is over 64 µg/mL and the MIC90 was over 64 µg/mL. In data set [2] (setting [5]), the MFC90 is over 64 µg/mL and the MIC90 was determined as 0.5 µg/mL (≈ 1.63 µM).
For `COC1=CC(=O)C[C@@H](C)[C@]12Oc1c(Cl)c(OC)cc(OC)c1C2=O` [Griseofulvin], the MIC50 amounted to 0.25 µg/mL (≈ 0.709 µM) against M. audouinii; 4 µg/mL (≈ 11.3 µM) with T. violaceum; 0.5 µg/mL (≈ 1.42 µM) in the data set on Trichophyton tonsurans (setting [6]); 0.5 µg/mL (≈ 1.42 µM) in data set [1]; 0.25 µg/mL (≈ 0.709 µM) with Microsporum canis. The MIC90 came out at 1 µg/mL (≈ 2.83 µM) in the data set on M. audouinii; 4 µg/mL (≈ 11.3 µM) against T. violaceum; 1 µg/mL (≈ 2.83 µM) in the data set on Trichophyton tonsurans (setting [6]); 2 µg/mL (≈ 5.67 µM) in data set [1]; 0.5 µg/mL (≈ 1.42 µM) against Microsporum canis. Further, the “MIC range” value against M. audouinii (in µg/mL) is 0.12-1.0; against Epidermophyton floccosum, 1 to 2 µg/mL; in the data set with T. violaceum (in µg/mL), 1.0-8.0; in the data set on Trichophyton tonsurans (T. tonsurans (n = 6), NB-002 as μg CPC/ml) it was 0.5 to 1 µg/mL; against Trichophyton tonsurans (T. tonsurans n = 10 (tinea capitis species), in µg/mL), 0.5-1.0; in data set [1], 0.25 to 4 µg/mL. Besides, in the data set with Microsporum canis (in µg/mL), the “MIC range” value is on record as 0.25-0.5. Further, in the data set on Epidermophyton floccosum, the “MFC Range” value lay within 1 to 16 µg/mL. In addition, the MFC50 in data set [1] turned out to be 8 µg/mL (≈ 22.7 µM). In data set [1], the MFC90 was over 16 µg/mL.
For `CN(C/C=C/C#CC(C)(C)C)Cc1cccc2ccccc12.Cl` [Terbinafine hydrochloride], in data set [3] (in words), the solubility in ethanol entry is on record as “soluble”; the “solubility in methanol and dichloromethane” value was “freely soluble”; the solubility in water result is “slightly soluble”.
Turning to `Clc1ccc(COC(Cn2ccnc2)c2ccc(Cl)cc2Cl)c(Cl)c1` (centres unmarked) [miconazole], in data set [3], the “Ethanol Solubility” value was 94 mg/mL, the “Log P” value is reported as 6.1, the “Soybean Solubility” value is 74 mg/mL and the pKa is reported as 6.67.

These data come from patent US20090269394A1, “METHODS AND COMPOSITIONS FOR TREATING ONCHOMYCOSIS” (priority 2008, published 2009).
